# Experimental data taken from patent US20260224716A1, “PTH ANALOGS FOR THE TREATMENT OF HYPOPARATHYROIDISM” (priority 2020, published 2026).
# *1 amine or outer side, *2 acyl side, *3 side chain or, on linkers, in order; H or OH if unused. Where no end group is shown, it is not given here. Side-chain parts run from the residue outwards. The star is where a group is joined. C18 diacid = O=C(O)CCCCCCCCCCCCCCCCC(=O)*; γGlu = O=C(O)[C@H](CCC(=O)[*:2])N[*:1]; AEEA = NCCOCCOCC(=O)O
# What was measured:
# PTH1 receptor = biological target: T1, PTH1 receptor (Homo sapiens, UniProt Q03431); test: Luciferase-based reporter gene assay for cAMP detection (HEK293 cells); format: cell-based; settings: for potency at the PTH receptor: luciferase reporter of cAMP production; for EC50: HEK293 cells, PTH1 receptor, cAMP-responsive luciferase, 5 hours, read-out: Potency EC50
# T1 construct: expressed in transfected cells; host or cells: HEK293
# T1 sequence (Q03431 27-593): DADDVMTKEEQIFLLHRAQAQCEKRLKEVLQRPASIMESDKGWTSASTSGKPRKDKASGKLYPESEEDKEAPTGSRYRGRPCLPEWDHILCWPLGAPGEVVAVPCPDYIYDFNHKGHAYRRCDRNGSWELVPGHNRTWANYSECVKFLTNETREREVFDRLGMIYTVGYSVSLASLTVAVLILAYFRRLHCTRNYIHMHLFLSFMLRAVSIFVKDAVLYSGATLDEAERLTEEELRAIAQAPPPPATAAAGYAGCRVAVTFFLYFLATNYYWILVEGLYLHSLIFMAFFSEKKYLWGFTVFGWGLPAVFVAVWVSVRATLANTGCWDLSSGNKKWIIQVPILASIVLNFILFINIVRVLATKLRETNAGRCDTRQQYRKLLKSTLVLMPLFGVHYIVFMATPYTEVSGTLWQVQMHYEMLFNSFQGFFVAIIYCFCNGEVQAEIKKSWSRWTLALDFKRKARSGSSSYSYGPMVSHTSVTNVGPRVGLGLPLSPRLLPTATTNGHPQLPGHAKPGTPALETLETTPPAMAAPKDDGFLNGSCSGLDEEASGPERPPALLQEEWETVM
# Experimental: At the end of the incubation, 50 μL of Steady-Lite Plus (PerkinElmer, Waltham, MA) were added to each well. The plate was shaken briefly, incubated four minutes and light output was measured on an EnSpire Alpha Multi-mode Plate Reader (PerkinElmer, Waltham, MA).
# [1] = Cleavage half-life / conversion of PTH prodrugs in PBS pH 7.4, 37° C. by LC-MS; format: physicochemical; settings: for half-life: PBS buffer, dipeptide cleavage from PTH prodrug, PBS pH 7.4, 37° C., read-out: Half life (converted)
# Experimental: The resulting solution was incubated at 37° C. Aliquots were taken at designed time points and analyzed by LC-MS. […] Flow rate of 1 mL/min and a gradient of 10%-80% acetonitrile in water, with 0.1% trifluoroacetic acid over 10 min. […] The concentration of prodrug and drug were determined by their relative peak areas. The […] dissociation rate constant of the prodrug was determined by plotting the logarithm in the concentration of the prodrug at various time points.
compound,measurement,setting,value
"SVSEIQLAHNLGKHLNSMERVEWLRKKLQDVHK(γE-(miniPEG)2-γE-COC16H32CO2H)-OH (SVSEIQLAHNLGKHLNSMERVEWLRKKLQDVHK([γGlu-AEEA-AEEA-γGlu-C18 diacid])-OH; N-terminus assumed; SMILES CC[C@H](C)[C@H](NC(=O)[C@H](CCC(=O)O)NC(=O)[C@H](CO)NC(=O)[C@@H](NC(=O)[C@@H](N)CO)C(C)C)C(=O)N[C@@H](CCC(N)=O)C(=O)N[C@@H](CC(C)C)C(=O)N[C@@H](C)C(=O)N[C@@H](Cc1c[nH]cn1)C(=O)N[C@@H](CC(N)=O)C(=O)N[C@@H](CC(C)C)C(=O)NCC(=O)N[C@@H](CCCCN)C(=O)N[C@@H](Cc1c[nH]cn1)C(=O)N[C@@H](CC(C)C)C(=O)N[C@@H](CC(N)=O)C(=O)N[C@@H](CO)C(=O)N[C@@H](CCSC)C(=O)N[C@@H](CCC(=O)O)C(=O)N[C@@H](CCCNC(=N)N)C(=O)N[C@H](C(=O)N[C@@H](CCC(=O)O)C(=O)N[C@@H](Cc1c[nH]c2ccccc12)C(=O)N[C@@H](CC(C)C)C(=O)N[C@@H](CCCNC(=N)N)C(=O)N[C@@H](CCCCN)C(=O)N[C@@H](CCCCN)C(=O)N[C@@H](CC(C)C)C(=O)N[C@@H](CCC(N)=O)C(=O)N[C@@H](CC(=O)O)C(=O)N[C@H](C(=O)N[C@@H](Cc1c[nH]cn1)C(=O)N[C@@H](CCCCNC(=O)CC[C@H](NC(=O)COCCOCCNC(=O)COCCOCCNC(=O)CC[C@H](NC(=O)CCCCCCCCCCCCCCCCC(=O)O)C(=O)O)C(=O)O)C(=O)O)C(C)C)C(C)C; listed as Homo sapiens) [SEQ ID NO: 93, PTH(1-33), A8, K33(γE-2xOEG-γE-diacidC18)]",reduction of in vitro potency by alanine substitution at position 8,PTH1 receptor,~100 fold
same,potency at the PTH receptor,PTH1 receptor; FIG. 4,decreases PTH activity
CC[C@H](C)[C@H](NC(=O)[C@H](CCC(=O)O)NC(=O)[C@H](CO)NC(=O)[C@@H](NC(=O)[C@@H](N)CO)C(C)C)C(=O)N[C@@H](CCC(N)=O)C(=O)N[C@@H](CC(C)C)C(=O)N[C@@H](CCSC)C(=O)N[C@@H](Cc1c[nH]cn1)C(=O)N[C@@H](CC(N)=O)C(=O)N[C@@H](CC(C)C)C(=O)NCC(=O)N[C@@H](CCCCN)C(=O)N[C@@H](Cc1c[nH]cn1)C(=O)N[C@@H](CC(C)C)C(=O)N[C@@H](CC(N)=O)C(=O)N[C@@H](CO)C(=O)N[C@@H](CCSC)C(=O)N[C@@H](CCC(=O)O)C(=O)N[C@@H](CCCNC(=N)N)C(=O)N[C@H](C(=O)N[C@@H](CCC(=O)O)C(=O)N[C@@H](Cc1c[nH]c2ccccc12)C(=O)N[C@@H](CC(C)C)C(=O)N[C@@H](CCCNC(=N)N)C(=O)N[C@@H](CCCCN)C(=O)N[C@@H](CCCCN)C(=O)N[C@@H](CC(C)C)C(=O)N[C@@H](CCC(N)=O)C(=O)N[C@@H](CC(=O)O)C(=O)N[C@H](C(=O)N[C@@H](Cc1c[nH]cn1)C(=O)N[C@@H](CC(N)=O)C(=O)N[C@@H](Cc1ccccc1)C(=O)N[C@@H](CCCCNC(=O)CC[C@H](NC(=O)CCCCCCCCCCCCCCCCC(=O)O)C(=O)O)C(N)=O)C(C)C)C(C)C [SEQ ID NO: 56],potency at the PTH receptor,"PTH1 receptor; FIGS. 3A, 3B",retains high potency
same,EC50,PTH1 receptor,0.0029 µM
k(N-Me)GSVSEIQLMHNLGKHLNSMERVEWLRKKLQDVHK(γE-(miniPEG)2-γE-COC16H32CO2H)-OH [SEQ ID NO: 80],potency at the PTH receptor,PTH1 receptor; FIG. 4,decreases the potency
CC[C@H](C)[C@H](NC(=O)[C@H](CCC(=O)O)NC(=O)[C@H](CO)NC(=O)[C@@H](NC(=O)[C@H](CO)NC(=O)CN(C(=O)[C@@H](N)CCCCNC(=O)CC[C@H](NC(=O)CCCCCCCCCCCCCCCCC(=O)O)C(=O)O)C(C)C)C(C)C)C(=O)N[C@@H](CCC(N)=O)C(=O)N[C@@H](CC(C)C)C(=O)N[C@@H](CCSC)C(=O)N[C@@H](Cc1c[nH]cn1)C(=O)N[C@@H](CC(N)=O)C(=O)N[C@@H](CC(C)C)C(=O)NCC(=O)N[C@@H](CCCCN)C(=O)N[C@@H](Cc1c[nH]cn1)C(=O)N[C@@H](CC(C)C)C(=O)N[C@@H](CC(N)=O)C(=O)N[C@@H](CO)C(=O)N[C@@H](CCSC)C(=O)N[C@@H](CCC(=O)O)C(=O)N[C@@H](CCCNC(=N)N)C(=O)N[C@H](C(=O)N[C@@H](CCC(=O)O)C(=O)N[C@@H](Cc1c[nH]c2ccccc12)C(=O)N[C@@H](CC(C)C)C(=O)N[C@@H](CCCNC(=N)N)C(=O)N[C@@H](CCCCN)C(=O)N[C@@H](CCCCN)C(=O)N[C@@H](CC(C)C)C(=O)N[C@@H](CCC(N)=O)C(=O)N[C@@H](CC(=O)O)C(=O)N[C@H](C(=O)N[C@@H](Cc1c[nH]cn1)C(=O)N[C@@H](CC(N)=O)C(=O)N[C@@H](Cc1ccccc1)C(=O)O)C(C)C)C(C)C [SEQ ID NO: 48],half-life,[1],67 h
same,"Half life, fold slower than dK (vs SEQ ID NO: 46)",[1]; comparator SEQ ID NO: 46,1.4 slower than dK
same,"Half life, fold faster than Sar (vs SEQ ID NO: 52)",[1]; comparator SEQ ID NO: 52,1.9 faster than Sar
"(dK)K(γE-COC16H32CO2H)GSVSEIQLMHNLGKHLNSMERVEWLRKKLQDVHNF [SEQ ID NO: 10, acylated dipeptide attached to PTH (1-34)]",potency at the PTH receptor,"PTH1 receptor; FIGS. 3A, 3B",decreases the potency
CC[C@H](C)[C@H](NC(=O)[C@H](CCC(=O)O)NC(=O)[C@H](CO)NC(=O)[C@@H](NC(=O)[C@H](CO)NC(=O)CN(C)C(=O)[C@H](N)CCCCNC(=O)CC[C@H](NC(=O)CCCCCCCCCCCCCCCCC(=O)O)C(=O)O)C(C)C)C(=O)N[C@@H](CCC(N)=O)C(=O)N[C@@H](CC(C)C)C(=O)N[C@@H](CCSC)C(=O)N[C@@H](Cc1c[nH]cn1)C(=O)N[C@@H](CC(N)=O)C(=O)N[C@@H](CC(C)C)C(=O)NCC(=O)N[C@@H](CCCCN)C(=O)N[C@@H](Cc1c[nH]cn1)C(=O)N[C@@H](CC(C)C)C(=O)N[C@@H](CC(N)=O)C(=O)N[C@@H](CO)C(=O)N[C@@H](CCSC)C(=O)N[C@@H](CCC(=O)O)C(=O)N[C@@H](CCCNC(=N)N)C(=O)N[C@H](C(=O)N[C@@H](CCC(=O)O)C(=O)N[C@@H](Cc1c[nH]c2ccccc12)C(=O)N[C@@H](CC(C)C)C(=O)N[C@@H](CCCNC(=N)N)C(=O)N[C@@H](CCCCN)C(=O)N[C@@H](CCCCN)C(=O)N[C@@H](CC(C)C)C(=O)N[C@@H](CCC(N)=O)C(=O)N[C@@H](CC(=O)O)C(=O)N[C@H](C(=O)N[C@@H](Cc1c[nH]cn1)C(=O)N[C@@H](CCC(N)=O)C(=O)N[C@@H](Cc1ccccc1)C(=O)O)C(C)C)C(C)C [SEQ ID NO: 61],potency at the PTH receptor,"PTH1 receptor; FIGS. 3A, 3B",decreases the potency
same,EC50,PTH1 receptor,0.0455 µM
CC[C@H](C)[C@H](NC(=O)[C@H](CCC(=O)O)NC(=O)[C@H](CO)NC(=O)[C@@H](NC(=O)[C@H](CO)NC(=O)[C@@H]1CCCCN1C(=O)[C@@H](N)CCCCNC(=O)CC[C@H](NC(=O)CCCCCCCCCCCCCCCCC(=O)O)C(=O)O)C(C)C)C(=O)N[C@@H](CCC(N)=O)C(=O)N[C@@H](CC(C)C)C(=O)N[C@@H](CCSC)C(=O)N[C@@H](Cc1c[nH]cn1)C(=O)N[C@@H](CC(N)=O)C(=O)N[C@@H](CC(C)C)C(=O)NCC(=O)N[C@@H](CCCCN)C(=O)N[C@@H](Cc1c[nH]cn1)C(=O)N[C@@H](CC(C)C)C(=O)N[C@@H](CC(N)=O)C(=O)N[C@@H](CO)C(=O)N[C@@H](CCSC)C(=O)N[C@@H](CCC(=O)O)C(=O)N[C@@H](CCCNC(=N)N)C(=O)N[C@H](C(=O)N[C@@H](CCC(=O)O)C(=O)N[C@@H](Cc1c[nH]c2ccccc12)C(=O)N[C@@H](CC(C)C)C(=O)N[C@@H](CCCNC(=N)N)C(=O)N[C@@H](CCCCN)C(=O)N[C@@H](CCCCN)C(=O)N[C@@H](CC(C)C)C(=O)N[C@@H](CCC(N)=O)C(=O)N[C@@H](CC(=O)O)C(=O)N[C@H](C(=O)N[C@@H](Cc1c[nH]cn1)C(=O)N[C@@H](CC(N)=O)C(=O)N[C@@H](Cc1ccccc1)C(=O)O)C(C)C)C(C)C [SEQ ID NO: 54],half-life,[1],250 h
same,"Half life, fold slower than Sar (vs SEQ ID NO: 52)",[1]; comparator SEQ ID NO: 52,1.9 slower than Sar
